Assay results as given in ChEMBL document CHEMBL4808243, “Harmine-inspired design and synthesis of benzo[d]imidazo[2,1-b]thiazole derivatives bearing 1,3,4-oxadiazole moiety as potential tumor suppressors” (Bioorg Med Chem, 2021).
The source made the active and inactive calls. No cut-off for these calls is given here.

Assays:
Assay type in all cases: functional, cell-based
[1] = system: A549; experiment: Antiproliferative activity against human A549 cells assessed as inhibition of cell growth incubated for 72 hrs by MTT assay; conditions: A549, 72 h
[2] = system: NCI-H2228; experiment: Antiproliferative activity against human EML4-ALK positive H2228 cells assessed as inhibition of cell growth incubated for 72 hrs by MTT assay; conditions: NCI-H2228, 72 h
[3] = system: A549; experiment: Induction of apoptosis in human A549 cells by flow cytometry analysis
[4] = system: A549; experiment: Inhibition of epithelial-mesenchymal transition in human A549 cells assessed as suppression of Twist 1 expression measured after 24 hrs by Western blot analysis; conditions: dose 0.5-2 µM
[5] = system: A549; experiment: Inhibition of epithelial-mesenchymal transition in human A549 cells assessed as suppression of Twist 1 expression at 17 uM measured after 24 hrs by Western blot analysis

IC50 [1] [µM] | IC50 [2] [µM] | SMILES | Activity [3] | Activity [4] | Activity [5]
4.41 | 14.9 | Cc1nc2sc3ccccc3n2c1-c1nnc(CN2CCN(CCO)CC2)o1 | – | – | –
7.66 | 15.4 | Cc1nc2sc3ccccc3n2c1-c1nnc(CCN2CCC(O)CC2)o1 | – | – | –
9.26 | 15.3 | Cc1nc2sc3ccccc3n2c1-c1nnc(CN(C)C)o1 | – | – | –
10.7 | 21.6 | CCN(CC)Cc1nnc(-c2c(C)nc3sc4ccccc4n23)o1 | – | – | –
9.55 | 23.9 | CCN(CC)CCc1nnc(-c2c(C)nc3sc4ccccc4n23)o1 | – | – | –
7.7 | 26.5 | Cc1nc2sc3ccccc3n2c1-c1nnc(CN2CCCC2)o1 | – | – | –
15.1 | 19.2 | Cc1nc2sc3ccccc3n2c1-c1nnc(CN2CCCCC2)o1 | – | – | –
2.38 | 13.4 | Cc1nc2sc3ccccc3n2c1-c1nnc(CCN2CCC(C)CC2)o1 | – | – | –
6.95 | 14 | Cc1nc2sc3ccccc3n2c1-c1nnc(CCN2CCN(CCO)CC2)o1 | – | – | –
12.3 | 27.2 | Cc1nc2sc3ccccc3n2c1-c1nnc(CN2CC(O)C2)o1 | – | – | –
11.9 | 19 | Cc1nc2sc3ccccc3n2c1-c1nnc(CCN(C)C)o1 | – | – | –
10.7 | 16.5 | Cc1nc2sc3ccccc3n2c1-c1nnc(CCNCCO)o1 | – | – | –
2.03 | 9.8 | Cc1nc2sc3ccccc3n2c1-c1nnc(CCN2CCCCC2)o1 | inactive | Dose-Dependent Effect | –
15 | 12.2 | Cc1nc2sc3ccccc3n2c1-c1nnc(CN2CCC(O)CC2)o1 | – | – | –
3.92 | 17.4 | Cc1nc2sc3ccccc3n2c1-c1nnc(CNC2CCCC2)o1 | – | – | –
12.2 | 23.5 | Cc1nc2sc3ccccc3n2c1-c1nnc(CCN2CCCC2)o1 | – | – | –
9.63 | 22.5 | Cc1nc2sc3ccccc3n2c1-c1nnc(CCN2CC(O)C2)o1 | – | – | –
13.7 | 21.8 | CCCN1CCN(Cc2nnc(-c3c(C)nc4sc5ccccc5n34)o2)CC1 | – | – | –
8.46 | 17.8 | Cc1nc2sc3ccccc3n2c1-c1nnc(CNCCO)o1 | – | – | –
12.8 | 23.1 | Cc1nc2sc3ccccc3n2c1-c1nnc(CN2CCC(C)CC2)o1 | – | – | –
11.1 | 22.2 | CCCN1CCN(CCc2nnc(-c3c(C)nc4sc5ccccc5n34)o2)CC1 | – | – | –
15 | 18.6 | Cc1nc2sc3ccccc3n2c1-c1nnc(CCNC2CCCC2)o1 | – | – | –

SMILES | IC50 [1] [µM] | IC50 [2] [µM] | Activity [3] | Activity [4] | Activity [5]
COc1ccc2c(c1)[nH]c1c(C)nccc12 [HARMINE] | 17.1 | 31.1 | – | – | Active
